Reference: patent US12138256B2, “Treatment of cardiopulmonary disorders” (Bayer Aktiengesellschaft, priority 2021, dated 2024)
Values joined by “and” are separate entries in the source; they are usually repeats but may differ in a detail not shown here. Equal values may be shown once.

What was measured:
[1] = tested on: thromboxane analog U46619 induced PAH in minipigs with ODQ or L-NAME pretreatment; experiment: PAH minipig model under oxidative stress / low NO (pretreatment by ODQ or L-NAME); format: in vivo, Göttingen minipig; parameters: PAP / BP: unit not given beside the values; conditions: for BP / PAP: 30 μg/kg nominal dose inhaled
Experimental: To simulate conditions of oxidative stress or low NO concentrations as assumed to be present in different cardiovascular disorders, comparative example 11 was evaluated with and without pretreatment by ODQ (inhibitor of sGC) or L-NAME (NOS inhibitor). […] In contrast, the effects of Ventavis® under conditions of oxidative stress or low NO concentrations were not enhanced. In addition, also under these pathophysiological conditions the duration of action of comparative example 11 was much longer compared to Ventavis®.

plasma proteins = experiment: Protein binding via Transil assay, rat plasma; format: in vitro ADME; conditions: rat plasma
Excerpt: The distribution of a test substance between Transil® (phosphatidylcholine lipid bilayers immobilized on silica beads) and plasma is a characteristic feature of any pharmaceutical compound and is dependent on its extent of binding to plasma proteins. By comparing the distribution between Transil® and buffer with the distribution between Transil® and plasma of any species of interest, the unbound fraction in the plasma of the respective animal species can be calculated in vitro. The respective plasma and buffer concentrations were determined via a radioactivity analysis. A detailed description of the method and its validation was published by Schuhmacher et al. (2).

Caco-2 cells = experiment: Caco-2 permeability test (C-5.1); format: in vitro ADME, human; conditions: 2 μM
Experimental: The in vitro permeation of a test compound across a Caco-2 cell monolayer is a well-established assay system to predict the permeability from the gastro-intestinal tract (1). The permeability of the compounds of the present invention in such Caco-2 cells was determined as described below:
Human caco-2 cells were seeded on 24-well insert plates and were allowed to grow for 14-16 days. For permeability studies, the test compounds were dissolved in DMSO and diluted to the final test concentration of 2 μM with transport buffer [Hanks' Buffered Salt Solution, Gibco/Invitrogen, further supplemented with glucose and HEPES]. For determination of the apical to basolateral permeability (PappA-B), the test compound solution was added to the apical side of the cell monolayer and transport buffer to the basolateral side of the monolayer; for determination of the basolateral to apical permeability (PappB-A), the test compound solution was added to the basolateral side of the cell monolayer and transport buffer to the apical side of the monolayer. Samples were taken from the donor compartment at the beginning of the experiment to confirm mass balance. After an incubation of 2 h at 37° C., samples were taken from both compartments. Samples were analyzed by LC-MS/MS, and the apparent permeability coefficients were calculated. Lucifer Yellow permeability was assayed for each cell monolayer to ensure cell monolayer integrity, and the permeability of Atenolol (low permeability marker) and Sulfasalazine (marker for active excretion) was determined for each batch as quality control.

For `O=C(O)c1ccc(CCN(CCc2ccccc2OCc2ccc(-c3ccc(C(F)(F)F)cc3)cc2Cl)[C@H]2CCCc3nc(C(=O)O)ccc32)cc1` [comparative example 11, (5S)-5-{[2-(4-carboxyphenyl)ethyl][2-(2-{[3-chloro-4′-(trifluoromethyl)[biphenyl]-4-yl]methoxy}phenyl)ethyl]amino}-5,6,7,8-tetrahydroquinoline-2-carboxylic acid], the BP ([1]; L-NAME pretreatment, Time 170) was 103.0 and 135.0 and 123.0, the PAP ([1]; L-NAME pretreatment, Time 170) was 39.5 and 36.2 and 34.6 and the BP ([1]; L-NAME pretreatment, Time 180) was 104.0 and 139.0 and 127.0. The PAP ([1]; L-NAME pretreatment, Time 180) was 38.9 and 29.1 and 30.8, the BP ([1]; L-NAME pretreatment, Time 190) was 104.0 and 137.0 and 127.0 and the PAP ([1]; L-NAME pretreatment, Time 190) was 38.0 and 25.9 and 28.4. For the same molecule, the BP ([1]; L-NAME pretreatment, Time 200) was 104.0 and 135.0 and 129.0, the PAP ([1]; L-NAME pretreatment, Time 200) was 36.8 and 24.6 and 28.1 and the BP ([1]; L-NAME pretreatment, Time 210) was 105.0 and 133.0 and 127.0. The PAP ([1]; L-NAME pretreatment, Time 210) was 36.5 and 23.9 and 26.6, the BP ([1]; L-NAME pretreatment, Time 220) was 107.0 and 131.0 and 127.0 and the PAP ([1]; L-NAME pretreatment, Time 220) was 36.6 and 23.8 and 25.5. The BP ([1]; L-NAME pretreatment, Time 230) was 108.0 and 127.0 and 129.0, the PAP ([1]; L-NAME pretreatment, Time 230) was 35.5 and 23.6 and 25.6 and the BP ([1]; L-NAME pretreatment, Time 240) was 106.0 and 128.0. For the same molecule, the PAP ([1]; L-NAME pretreatment, Time 240) was 35.0 and 24.0 and 25.0, the BP ([1]; L-NAME pretreatment, Time 250) was 106.0 and 126.0 and 130.0 and the PAP ([1]; L-NAME pretreatment, Time 250) was 34.5 and 23.5 and 24.8. For the same molecule, the BP ([1]; L-NAME pretreatment, Time 260) was 107.0 and 126.0 and 130.0, the PAP ([1]; L-NAME pretreatment, Time 260) was 34.6 and 24.2 and 24.7 and the BP ([1]; L-NAME pretreatment, Time 270) was 104.0 and 126.0 and 129.0. For the same molecule, the PAP ([1]; L-NAME pretreatment, Time 270) was 34.1 and 24.0 and 24.3, the BP ([1]; L-NAME pretreatment, Time 280) was 103.0 and 125.0 and 129.0 and the PAP ([1]; L-NAME pretreatment, Time 280) was 33.4 and 23.7 and 24.4. The BP ([1]; L-NAME pretreatment, Time 290) was 104.0 and 126.0 and 128.0, the PAP ([1]; L-NAME pretreatment, Time 290) was 34.4 and 23.4 and 24.2 and the BP ([1]; L-NAME pretreatment, Time 300) was 105.0 and 125.0 and 127.0. For the same molecule, the PAP ([1]; L-NAME pretreatment, Time 300) was 34.2 and 24.1 and 24.0, the BP ([1]; L-NAME pretreatment, Time 310) was 103.0 and 125.0 and 128.0 and the PAP ([1]; L-NAME pretreatment, Time 310) was 33.3 and 23.6 and 24.3. For the same molecule, the BP ([1]; L-NAME pretreatment, Time 320) was 104.0 and 125.0 and 126.0, the PAP ([1]; L-NAME pretreatment, Time 320) was 33.8 and 23.1 and 24.0 and the BP ([1]; L-NAME pretreatment, Time 330) was 105.0 and 126.0 and 125.0. For the same molecule, the PAP ([1]; L-NAME pretreatment, Time 330) was 34.1, the BP ([1]; L-NAME pretreatment, Time 340) was 104.0 and 126.0 and 125.0 and the BP ([1]; without pretreatment, Time 170) was 90.0 and 108.0. The PAP ([1]; without pretreatment, Time 170) was 39.7 and 38.0 and 42.6, the BP ([1]; without pretreatment, Time 180) was 90.0 and 108.0 and the PAP ([1]; without pretreatment, Time 180) was 38.5 and 37.1 and 41.5. For the same molecule, the BP ([1]; without pretreatment, Time 190) was 90.0 and 107.0 and 108.0, the PAP ([1]; without pretreatment, Time 190) was 37.0 and 35.9 and 40.3 and the BP ([1]; without pretreatment, Time 200) was 89.0 and 109.0. The PAP ([1]; without pretreatment, Time 200) was 36.5 and 35.2 and 39.0, the BP ([1]; without pretreatment, Time 210) was 89.0 and 108.0 and 109.0 and the PAP ([1]; without pretreatment, Time 210) was 35.6 and 34.2 and 38.5. The BP ([1]; without pretreatment, Time 220) was 88.0 and 110.0 and 108.0, the PAP ([1]; without pretreatment, Time 220) was 34.7 and 33.9 and 36.8 and the BP ([1]; without pretreatment, Time 230) was 87.0 and 108.0. For the same molecule, the PAP ([1]; without pretreatment, Time 230) was 34.8 and 33.4 and 37.1, the BP ([1]; without pretreatment, Time 240) was 87.0 and 109.0 and 108.0 and the PAP ([1]; without pretreatment, Time 240) was 34.5 and 33.6 and 37.0. For the same molecule, the BP ([1]; without pretreatment, Time 250) was 86.0 and 110.0 and 109.0, the PAP ([1]; without pretreatment, Time 250) was 34.3 and 33.5 and 36.7 and the BP ([1]; without pretreatment, Time 260) was 87.0 and 109.0 and 110.0. For the same molecule, the PAP ([1]; without pretreatment, Time 260) was 34.1 and 33.3 and 36.5, the BP ([1]; without pretreatment, Time 270) was 86.0 and 108.0 and 110.0 and the PAP ([1]; without pretreatment, Time 270) was 34.0 and 33.6 and 36.2. For the same molecule, the BP ([1]; without pretreatment, Time 280) was 88.0 and 109.0, the PAP ([1]; without pretreatment, Time 280) was 34.5 and 33.5 and 35.6 and the BP ([1]; without pretreatment, Time 290) was 88.0 and 108.0 and 110.0. The PAP ([1]; without pretreatment, Time 290) was 34.7 and 33.6 and 35.5, the BP ([1]; without pretreatment, Time 300) was 86.0 and 107.0 and 111.0 and the PAP ([1]; without pretreatment, Time 300) was 34.1 and 33.2 and 35.4. The BP ([1]; without pretreatment, Time 310) was 85.0 and 107.0 and 109.0, the PAP ([1]; without pretreatment, Time 310) was 34.0 and 33.6 and 35.1 and the BP ([1]; without pretreatment, Time 320) was 85.0 and 108.0 and 109.0. For the same molecule, the PAP ([1]; without pretreatment, Time 320) was 34.5 and 34.0 and 35.8, the BP ([1]; without pretreatment, Time 330) was 85.0 and 108.0 and 109.0 and the PAP ([1]; without pretreatment, Time 330) was 34.8 and 34.0 and 35.9. For the same molecule, the BP ([1]; without pretreatment, Time 340) was 85.0, the “effect on PAP after pretreatment of ODQ or L-NAME” value ([1]; inhaled, comparative example 11 30 μg/kg ND, Ventavis 10 μg/kg nominal dose) was “enhanced decrease of PAP without effects on systemic BP” and the “fraction unbound, times lower than comparative example 1” value (plasma proteins) was 1.6 times. For the same molecule, the efflux ratio (Caco-2 cells) was “does not show an efflux ratio”.
